Laboratory results published in patent USRE50663E1, “Heterocycle derivatives as pesticides” (Bayer Aktiengesellschaft, priority 2017, dated 2025).
Like-named read-outs stand apart in the source and are kept apart here.

Tests used:
[1] = logP by HPLC on reversed-phase column (C18), acidic range; format: physicochemical; settings: formic acid in water/acetonitrile
Protocol: The logP values were determined according to EEC Directive 79/831 Annex V.A8 by HPLC (high-performance liquid chromatography) on a reversed-phase column (C18) using the following methods:
Calibration was carried out using a homologous series of straight-chain alkan-2-ones (having 3 to 16 carbon atoms) with known logP values. The values between successive alkanones are determined by linear regression.

[2] = tested on: green peach aphids (Myzus persicae); assay: Myzus persicae oral test; format: in vivo; settings: 120 h, read-out: efficacy
Protocol: Solvent: 100 parts by weight of acetone
To produce a suitable active compound formulation, 1 part by weight of active compound is dissolved with the stated parts by weight of solvent and made up to the desired concentration with water.
50 μl of the active compound formulation are transferred into microtitre plates and made up to a final volume of 200 μl with 150 μl of IPL41 insect medium (33%+15% sugar). Subsequently, the plates are sealed with parafilm, which a mixed population of green peach aphids (Myzus persicae) within a second microtitre plate is able to puncture and imbibe the solution.
(§1) After 5 days, the efficacy in % is determined. 100% means that all the aphids have been killed; 0% means that no aphids have been killed.

[3] = tested on: larvae of the mustard beetle (Phaedon cochleariae); assay: Phaedon cochleariae spray test; format: in vivo; settings: foliar, 168 h, read-out: efficacy
Protocol: (§2) Solvent: 78.0 parts by weight of acetone • • 1.5 parts by weight of dimethylformamide
(§3) Emulsifier: alkylaryl polyglycol ether
(§4) To produce a suitable active compound formulation, 1 part by weight of active compound is dissolved with the specified parts by weight of solvent and made up to the desired concentration with water containing an emulsifier concentration of 1000 ppm. To produce further test concentrations, the formulation is diluted with emulsifier-containing water.
Discs of Chinese cabbage leaves (Brassica pekinensis) are sprayed with an active compound formulation of the desired concentration and, after drying, populated with larvae of the mustard beetle (Phaedon cochleariae).
After 7 days, the efficacy in % is determined. 100% means that all the beetle larvae have been killed; 0% means that no beetle larvae have been killed.

[4] = tested on: caterpillars of the fall armyworm (Spodoptera frugiperda); assay: Spodoptera frugiperda spray test; format: in vivo; settings: foliar, 168 h, read-out: efficacy
Protocol: as §2, §3, §4
Leaf discs of maize (Zea mays) are sprayed with an active compound formulation of the desired concentration and, after drying, populated with caterpillars of the fall armyworm (Spodoptera frugiperda).
After 7 days, the efficacy in % is determined. 100% means that all the caterpillars have been killed; 0% means that no caterpillar has been killed.

[5] = tested on: green peach aphid (Myzus persicae); assay: Myzus persicae spray test; format: in vivo; settings: foliar, 120 h, 100 g/ha, after 5 days, Chinese cabbage leaf discs, read-out: efficacy
Protocol: Solvent: 78 parts by weight of acetone • • 1.5 parts by weight of dimethylformamide
as §3, §4
Discs of Chinese cabbage leaves (Brassica pekinensis) infested by all stages of the green peach aphid (Myzus persicae) are sprayed with an active compound formulation of the desired concentration.
as §1

[6] = tested on: adult cat fleas (Ctenocephalides felis); assay: Ctenocephalides felis oral test; format: in vivo; settings: 48 h, 100 ppm in citrated cattle blood, after 2 days, read-out: efficacy (kill)
Protocol: Solvent: dimethyl sulfoxide
To produce a suitable active compound formulation, 10 mg of active compound are mixed with 0.5 ml of dimethyl sulfoxide. Dilution with citrated cattle blood gives the desired concentration.
About 20 unfed adult cat fleas (Ctenocephalides felis) are placed into a chamber which is closed at the top and bottom with gauze. A metal cylinder whose bottom end is closed with parafilm is placed onto the chamber. The cylinder contains the blood/active compound formulation, which can be imbibed by the fleas through the parafilm membrane.
After 2 days, the kill in % is determined. 100% means that all of the fleas have been killed; 0% means that none of the fleas have been killed.

[7] = reversed-phase HPLC column (C18)
[8] = 100 g/ha, after 7 days, Chinese cabbage leaf discs
[9] = 100 g/ha, after 7 days, maize leaf discs

In the case of `CCS(=O)(=O)c1c(-c2nc3cc(C(F)(F)F)cnc3n2C)nc2cc(Br)ccn12` [2-[7-Bromo-3-(ethylsulfonyl)imidazo[1,2-a]pyridin-2-yl]-3-methyl-6-(trifluoromethyl)-3H-imidazo[4,5-b]pyridine], the chromatographic logP [1, 7] was 3.3.
In the case of `CCS(=O)(=O)c1c(-c2nc3cc(C(F)(F)F)cnc3n2C)nc2cc(N)ccn12` [3-(Ethylsulfonyl)-2-[3-methyl-6-(trifluoromethyl)-3H-imidazo[4,5-b]pyridin-2-yl]imidazo[1,2-a]pyridine-7-amine], the chromatographic logP [1, 7] was 2.13.
For `CCS(=O)(=O)c1c(C(=O)O)nc2cc(Br)ccn12` [7-Bromo-3-(ethylsulfonyeimidazo[1,2-a]pyridine-2-carboxylic acid], the chromatographic logP [1, 7] was 1.52.
`CCOC(=O)c1nc2cc(Br)ccn2c1SCC` [Ethyl 7-bromo-3-(ethylsulfanyl)imidazo[1,2-a]pyridine-2-carboxylate] showed a chromatographic logP [1, 7] of 2.76.
Compound `CCOC(=O)c1nc2cc(Br)ccn2c1S(=O)(=O)CC` [Ethyl 7-bromo-3-(ethylsulfonyl)imidazo[1,2-a]pyridine-2-carboxylate] has a chromatographic logP [1, 7] of 2.22.
Work on `CCS(=O)(=O)c1c(-c2nc3cc(C(F)(F)F)cnc3n2C)nc2cc(NC(=S)OCC3CC3)ccn12` [Example I-06, O-(Cyclopropylmethyl) {3-(ethylsulfonyl)-2-[3-methyl-6-(trifluoromethyl)-3H-imidazo[4,5-b]pyridin-2-yl]imidazo[1,2-a]pyridin-7-yl}carbamothioate] yielded a chromatographic logP [1] of 3.76, a pest or weed control at 4 ppm [2] of 100% and a pest or weed control at 100 g/ha ([3]; in Brassica rapa) of 100%. The pest or weed control at 100 g/ha ([4]; in Zea mays) was 100%.
In the case of `CCS(=O)(=O)c1c(-c2nc3cc(C(F)(F)F)cnc3n2C)nc2cc(C(=O)NNC3CC3)ccn12` [Example I-10, N′-Cyclopropyl-3-(ethylsulfonyl)-2-[3-methyl-6-(trifluoromethyl)-3H-imidazo[4,5-b]pyridin-2-yl]imidazo[1,2-a]pyridine-7-carbohydrazide], the chromatographic logP [1, 7] was 2.41, the pest or weed control at 4 ppm ([2]; 4 ppm, after 5 days) was 100% and the pest or weed control at 100 g/ha [5] was 90%.
Work on `CCS(=O)(=O)c1c(-c2nc3cc(C(F)(F)F)cnc3n2C)nc2cc(/C=C/C3CC3)ccn12` [Example I-14] yielded a pest or weed control at 100 ppm [6] of 98%, a pest or weed control at 4 ppm ([2]; 4 ppm, after 5 days) of 100% and a pest or weed control at 100 g/ha [5] of 90%. For the same compound, the pest or weed control at 100 g/ha [3, 8] was 100% and the pest or weed control at 100 g/ha [4, 9] was 100%.
With `CCS(=O)(=O)c1c(-c2nc3cc(S(=O)(=O)C(F)(F)F)cnc3n2C)nc2cc(S(=O)(=O)C3CC3)ccn12` [Example I-15] the pest or weed control at 100 g/ha [5] was 90%, the pest or weed control at 100 g/ha [3, 8] was 100% and the pest or weed control at 100 g/ha [4, 9] was 100%.
`C=CCOC(=O)Nc1ccn2c(S(=O)(=O)CC)c(-c3nc4cc(C(F)(F)F)cnc4n3C)nc2c1` [Example I-17] showed a pest or weed control at 100 ppm [6] of 100%, a pest or weed control at 100 g/ha ([3]; in Brassica rapa) of 100% and a pest or weed control at 100 g/ha ([4]; in Zea mays) of 100%.
`CCS(=O)(=O)c1c(-c2nc3cc(C(F)(F)F)cnc3n2C)nc2cc(NC3=CC(=O)OC3)ccn12` [Example I-19] gave a pest or weed control at 100 g/ha [3, 8] of 100%.
Work on `CCS(=O)(=O)c1c(-c2nc3cc(C(F)(F)F)ncc3n2C)nc2cc(S(=O)(=O)NC3CC3)ccn12` [Example I-23] yielded a pest or weed control at 100 g/ha [5] of 90%.
For `CCS(=O)(=O)c1c(-c2nc3cc(C(F)(F)F)nnc3n2C)nc2cc(NS(=O)(=O)C3CC3)ccn12` [Example I-26], the pest or weed control at 100 g/ha [5] was 100%.
Compound `CCS(=O)(=O)c1c(-c2nc3cc(OC(F)(F)F)cnc3n2C)nc2cc(C3(C#N)CC3)ccn12` [Example I-29] has a pest or weed control at 100 g/ha [5] of 90%, a pest or weed control at 100 g/ha [3, 8] of 100% and a pest or weed control at 100 g/ha [4, 9] of 100%.
`CCS(=O)(=O)c1c(-c2nc3cc(C(F)(F)F)cnc3n2C)nc2cc(NC(C)=O)ccn12` [N-{3-(Ethylsulfonyl)-2-[3-methyl-6-(trifluoromethyl)-3H-imidazo[4,5-b]pyridin-2-yl]imidazo[1,2-a]pyridin-7-yl}acetamide] showed a chromatographic logP [1, 7] of 2.28.
Work on `CCS(=O)(=O)c1c(-c2nc3cc(C(F)(F)F)cnc3n2C)nc2cc(CC#N)ccn12` [{3-(Ethylsulfonyl)-2-[3-methyl-6-(trifluoromethyl)-3H-imidazo[4,5-b]pyridin-2-yl]imidazo[1,2-a]pyridin-7-yl}acetonitrile] yielded a chromatographic logP [1, 7] of 2.54.
